± gives the standard deviation of the averaged measurements.

Compound in one assay: CN(C)C/C=C/C(=O)Nc1cc2c(Nc3ccc(F)c(Cl)c3)ncnc2cc1O[C@H]1CCOC1 [AFATINIB]
In words: surviving fraction relative to DMSO-only wells; higher = less growth inhibition. Particulars: exposure time: 5 days. Summed up:
(§1)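 Lines were retained only if, across three screens, replicate Pearson r was >0.7 and median Z' was >0.3. Viability was measured as CellTiter-Glo luminescence and reported as surviving fraction relative to the median of DMSO-only wells. Readings followed 10 minutes at room temperature, after log-phase tumour cells seeded at 250–500 per well in 384-well plates had been exposed, from 24 hours after seeding, continuously for five days to inhibitors at 0.5, 1, 5, 10, 50, 100, 500 and 1000 nM.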

Compound in a further assay: Nc1nc2[nH]cnc2c(=S)[nH]1 [TIOGUANINE]
The description is as above. Particulars: exposure time: 5 days. The method in brief: as §1

With SUM149.B1*.S BREAST, the surviving fraction worked out at 1.11 ± 0.014 in the assay with AFATINIB (0.5 nM); 1.11 ± 0.061 in the assay with AFATINIB (1 nM); 1.05 ± 0.02 with AFATINIB (5 nM); 1.05 ± 0.037 with AFATINIB (10 nM); 0.966 ± 0.03 in the assay with AFATINIB (50 nM); 0.972 ± 0.045 with AFATINIB (100 nM). Further, the surviving fraction with AFATINIB (500 nM) came out at 0.916 ± 0.022; in the assay with AFATINIB (1000 nM) it was 0.798 ± 0.044; in the assay with TIOGUANINE (0.5 nM), 1.02 ± 0.072; with TIOGUANINE (1 nM), 1.019 ± 0.0064; with TIOGUANINE (5 nM) it was 1.03 ± 0.016; in the assay with TIOGUANINE (10 nM) it was 1.03 ± 0.056. The surviving fraction with TIOGUANINE (50 nM) amounted to 1.02 ± 0.033; in the assay with TIOGUANINE (100 nM), 1 ± 0.015; with TIOGUANINE (500 nM), 0.993 ± 0.022; in the assay with TIOGUANINE (1000 nM), 0.922 ± 0.033.
Take CAL51 BREAST: the surviving fraction with AFATINIB (0.5 nM) turned out to be 0.97 ± 0.048; in the assay with AFATINIB (1 nM), 1.02 ± 0.022; in the assay with AFATINIB (5 nM), 1.002 ± 0.0031; with AFATINIB (10 nM), 0.977 ± 0.033; in the assay with AFATINIB (50 nM) it was 1.04 ± 0.019; with AFATINIB (100 nM), 1.02 ± 0.028. Moreover, the surviving fraction with AFATINIB (500 nM) was 0.963 ± 0.085; with AFATINIB (1000 nM), 0.682 ± 0.06; with TIOGUANINE (0.5 nM), 0.984 ± 0.03; in the assay with TIOGUANINE (1 nM) it was 0.965 ± 0.017; in the assay with TIOGUANINE (5 nM), 0.999 ± 0.018; with TIOGUANINE (10 nM), 1 ± 0.031. Besides, the surviving fraction in the assay with TIOGUANINE (50 nM) was determined as 1.03 ± 0.049; with TIOGUANINE (100 nM), 1.06 ± 0.038; with TIOGUANINE (500 nM), 0.992 ± 0.051; with TIOGUANINE (1000 nM), 0.979 ± 0.026.
LM7 BONE: the surviving fraction with AFATINIB (0.5 nM) worked out at 1.02 ± 0.049; in the assay with AFATINIB (1 nM) it was 1 ± 0.14; with AFATINIB (5 nM), 1.02 ± 0.074; with AFATINIB (10 nM), 1.07 ± 0.026; with AFATINIB (50 nM) it was 1.02 ± 0.026; with AFATINIB (100 nM), 0.914 ± 0.091. For the same test system, the surviving fraction with AFATINIB (500 nM) came out at 0.443 ± 0.051; with AFATINIB (1000 nM), 0.169 ± 0.013; in the assay with TIOGUANINE (0.5 nM), 0.966 ± 0.054; in the assay with TIOGUANINE (1 nM), 0.984 ± 0.068; in the assay with TIOGUANINE (5 nM) it was 1.02 ± 0.064; with TIOGUANINE (10 nM), 1.05 ± 0.068. Besides, the surviving fraction in the assay with TIOGUANINE (50 nM) was 1.08 ± 0.058; with TIOGUANINE (100 nM) it was 1.07 ± 0.039; with TIOGUANINE (500 nM) it was 0.965 ± 0.1; with TIOGUANINE (1000 nM), 0.939 ± 0.13.
Consider HCC38 BREAST, for which the surviving fraction with AFATINIB (0.5 nM) is 1.37 ± 0.28; with AFATINIB (1 nM) it was 1.23 ± 0.18; with AFATINIB (5 nM), 1.27 ± 0.074; in the assay with AFATINIB (10 nM), 1.26 ± 0.044; with AFATINIB (50 nM), 1.2 ± 0.2; with AFATINIB (100 nM), 1.17 ± 0.17. Also, the surviving fraction in the assay with AFATINIB (500 nM) came out at 1 ± 0.18; with AFATINIB (1000 nM) it was 0.749 ± 0.098; with TIOGUANINE (0.5 nM), 1.15 ± 0.31; in the assay with TIOGUANINE (1 nM), 1.3 ± 0.38; with TIOGUANINE (5 nM), 1.15 ± 0.29; with TIOGUANINE (10 nM) it was 1.28 ± 0.099. Further, the surviving fraction in the assay with TIOGUANINE (50 nM) worked out at 1.1 ± 0.24; in the assay with TIOGUANINE (100 nM), 1.08 ± 0.062; with TIOGUANINE (500 nM), 1.08 ± 0.32; with TIOGUANINE (1000 nM), 0.95 ± 0.15.
As for SG31 HEADNECK, the surviving fraction is 0.967 ± 0.1 with AFATINIB (0.5 nM); 0.947 ± 0.046 with AFATINIB (1 nM); 0.62 ± 0.11 in the assay with AFATINIB (5 nM); 0.615 ± 0.18 with AFATINIB (10 nM); 0.515 ± 0.12 with AFATINIB (50 nM); 0.471 ± 0.13 with AFATINIB (100 nM). For the same test system, the surviving fraction is 0.528 ± 0.035 in the assay with AFATINIB (500 nM); 0.452 ± 0.054 with AFATINIB (1000 nM); 0.97 ± 0.023 with TIOGUANINE (0.5 nM); 1 ± 0.085 with TIOGUANINE (1 nM); 1 ± 0.16 in the assay with TIOGUANINE (5 nM); 1.01 ± 0.18 with TIOGUANINE (10 nM). Moreover, the surviving fraction in the assay with TIOGUANINE (50 nM) was 0.986 ± 0.073; with TIOGUANINE (100 nM), 0.871 ± 0.1; with TIOGUANINE (500 nM) it was 1.2 ± 0.25; with TIOGUANINE (1000 nM), 0.928 ± 0.17.
OSHN BONE: the surviving fraction in the assay with AFATINIB (0.5 nM) stood at 1.08 ± 0.03; in the assay with AFATINIB (1 nM), 1.07 ± 0.031; in the assay with AFATINIB (5 nM), 1.09 ± 0.042; in the assay with AFATINIB (10 nM) it was 1.07 ± 0.032; in the assay with AFATINIB (50 nM), 1.11 ± 0.032; with AFATINIB (100 nM), 1.11 ± 0.033. For the same test system, the surviving fraction with AFATINIB (500 nM) is 1.1 ± 0.031; with AFATINIB (1000 nM) it was 1.06 ± 0.019; with TIOGUANINE (0.5 nM), 1.01 ± 0.037; with TIOGUANINE (1 nM) it was 1.02 ± 0.026; in the assay with TIOGUANINE (5 nM) it was 1.01 ± 0.035; with TIOGUANINE (10 nM) it was 1.02 ± 0.034. In addition, the surviving fraction was found to be 1.02 ± 0.048 with TIOGUANINE (50 nM), 1.04 ± 0.038 with TIOGUANINE (100 nM), 1.01 ± 0.039 in the assay with TIOGUANINE (500 nM) and 0.9787 ± 0.007 with TIOGUANINE (1000 nM).
For CASKI CERVIX, the surviving fraction stood at 0.715 ± 0.055 in the assay with AFATINIB (0.5 nM); 0.522 ± 0.028 in the assay with AFATINIB (1 nM); 0.409 ± 0.041 with AFATINIB (5 nM); 0.274 ± 0.015 with AFATINIB (10 nM); 0.259 ± 0.0076 in the assay with AFATINIB (50 nM); 0.223 ± 0.006 with AFATINIB (100 nM). The surviving fraction with AFATINIB (500 nM) is 0.049 ± 0.007; with AFATINIB (1000 nM) it was 0.02 ± 0.0017; with TIOGUANINE (0.5 nM), 0.902 ± 0.091; with TIOGUANINE (1 nM) it was 0.902 ± 0.056; in the assay with TIOGUANINE (5 nM) it was 0.934 ± 0.029; in the assay with TIOGUANINE (10 nM), 0.952 ± 0.032. The surviving fraction with TIOGUANINE (50 nM) is 0.9923 ± 0.0092; with TIOGUANINE (100 nM), 1.01 ± 0.014; with TIOGUANINE (500 nM), 0.962 ± 0.037; with TIOGUANINE (1000 nM) it was 0.839 ± 0.072.
HS578T BREAST: the surviving fraction with AFATINIB (0.5 nM) is 1.01 ± 0.096; with AFATINIB (1 nM), 0.937 ± 0.017; with AFATINIB (5 nM) it was 1.08 ± 0.13; with AFATINIB (10 nM) it was 1.12 ± 0.039; in the assay with AFATINIB (50 nM), 1.17 ± 0.13; with AFATINIB (100 nM), 1.02 ± 0.052. Also, the surviving fraction amounted to 0.662 ± 0.054 in the assay with AFATINIB (500 nM); 0.243 ± 0.048 with AFATINIB (1000 nM); 0.998 ± 0.085 with TIOGUANINE (0.5 nM); 0.872 ± 0.14 with TIOGUANINE (1 nM); 0.944 ± 0.082 with TIOGUANINE (5 nM); 0.959 ± 0.075 in the assay with TIOGUANINE (10 nM). Also, the surviving fraction with TIOGUANINE (50 nM) is 0.923 ± 0.12; with TIOGUANINE (100 nM), 0.985 ± 0.12; with TIOGUANINE (500 nM) it was 1.01 ± 0.068; with TIOGUANINE (1000 nM), 0.897 ± 0.17.
